Test results taken from patent US8541588B2, “Sulfonamide derivatives” (Pfizer Limited, priority 2009, dated 2013).

Molecular target: T1, Nav1.7 (or SCN9A) channel; HEK cells stably transfected with hSCN9A (Homo sapiens, UniProt Q15858)
T1 construct: expressed in transfected cells
Assay: Nav1.7 block, PatchXpress 7000 automated whole-cell voltage clamp, estimated IC50 (EIC50)
Assay type: cell-based
Conditions: estimated IC50; hSCN9A HEK cells, PatchXpress platform; Examples 283-814

T1 sequence (Q15858 whole entry): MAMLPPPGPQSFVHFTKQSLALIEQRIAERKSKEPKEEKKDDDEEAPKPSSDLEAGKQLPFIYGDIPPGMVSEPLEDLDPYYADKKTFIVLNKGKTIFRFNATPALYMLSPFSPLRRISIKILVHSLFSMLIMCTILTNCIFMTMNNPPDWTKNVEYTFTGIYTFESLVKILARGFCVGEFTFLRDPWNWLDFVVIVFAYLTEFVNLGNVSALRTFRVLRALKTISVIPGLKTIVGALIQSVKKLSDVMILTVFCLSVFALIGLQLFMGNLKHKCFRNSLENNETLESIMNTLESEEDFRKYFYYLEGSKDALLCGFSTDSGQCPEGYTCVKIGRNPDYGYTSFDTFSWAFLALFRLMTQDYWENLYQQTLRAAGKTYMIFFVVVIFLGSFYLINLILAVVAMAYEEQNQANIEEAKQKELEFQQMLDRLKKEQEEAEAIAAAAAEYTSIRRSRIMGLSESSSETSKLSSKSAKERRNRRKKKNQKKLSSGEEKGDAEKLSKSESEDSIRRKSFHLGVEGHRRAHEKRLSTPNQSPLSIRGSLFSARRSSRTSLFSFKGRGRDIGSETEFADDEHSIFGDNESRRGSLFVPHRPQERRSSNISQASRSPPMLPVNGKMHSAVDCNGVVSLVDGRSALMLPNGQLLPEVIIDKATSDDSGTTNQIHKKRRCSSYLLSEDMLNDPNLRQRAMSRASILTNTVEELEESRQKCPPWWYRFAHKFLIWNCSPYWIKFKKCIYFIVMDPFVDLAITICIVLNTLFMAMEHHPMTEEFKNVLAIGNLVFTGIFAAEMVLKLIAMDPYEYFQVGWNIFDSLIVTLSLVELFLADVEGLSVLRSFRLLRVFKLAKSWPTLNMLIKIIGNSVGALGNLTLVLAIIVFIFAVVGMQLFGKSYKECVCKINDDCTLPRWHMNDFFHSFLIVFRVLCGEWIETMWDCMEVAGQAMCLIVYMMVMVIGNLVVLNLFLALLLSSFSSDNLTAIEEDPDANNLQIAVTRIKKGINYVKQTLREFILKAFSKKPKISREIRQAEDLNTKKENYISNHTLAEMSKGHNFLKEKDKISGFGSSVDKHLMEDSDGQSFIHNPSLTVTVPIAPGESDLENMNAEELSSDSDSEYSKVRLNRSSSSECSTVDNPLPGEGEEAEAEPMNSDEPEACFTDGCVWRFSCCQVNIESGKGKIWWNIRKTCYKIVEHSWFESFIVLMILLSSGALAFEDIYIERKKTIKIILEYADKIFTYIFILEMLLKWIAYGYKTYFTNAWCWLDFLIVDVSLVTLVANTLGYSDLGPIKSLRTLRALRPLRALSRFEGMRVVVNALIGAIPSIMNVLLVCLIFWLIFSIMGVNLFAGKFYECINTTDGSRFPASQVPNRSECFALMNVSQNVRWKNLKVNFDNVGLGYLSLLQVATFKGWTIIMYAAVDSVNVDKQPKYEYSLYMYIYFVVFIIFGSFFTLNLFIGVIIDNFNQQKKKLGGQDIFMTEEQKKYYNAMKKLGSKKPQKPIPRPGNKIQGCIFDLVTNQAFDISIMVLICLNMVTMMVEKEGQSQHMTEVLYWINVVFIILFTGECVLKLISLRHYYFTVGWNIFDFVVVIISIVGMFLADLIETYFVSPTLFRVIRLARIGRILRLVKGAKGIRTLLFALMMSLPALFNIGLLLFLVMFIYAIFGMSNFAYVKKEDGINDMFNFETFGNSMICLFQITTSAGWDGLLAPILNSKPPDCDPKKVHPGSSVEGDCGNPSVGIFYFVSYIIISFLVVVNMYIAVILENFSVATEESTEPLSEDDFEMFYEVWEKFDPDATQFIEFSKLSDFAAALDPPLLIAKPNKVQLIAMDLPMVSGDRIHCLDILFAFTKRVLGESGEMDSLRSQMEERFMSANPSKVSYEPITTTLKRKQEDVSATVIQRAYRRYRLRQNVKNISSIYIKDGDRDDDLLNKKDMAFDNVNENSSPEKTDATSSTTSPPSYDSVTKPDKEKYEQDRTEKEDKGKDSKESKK

IC50	Compound
0.025 µM	Cn1nccc1-c1cc(Cl)ccc1Oc1cc(F)c(S(=O)(=O)Nc2nccs2)cc1Cl [Example 304, 5-chloro-4-[4-chloro-2-(1-methyl-1H-pyrazol-5-yl)phenoxy]-2-fluoro-N-1,3-thiazol-2-ylbenzenesulfonamide]
0.097 µM	CCn1nc(C(F)(F)F)cc1-c1ccc(Oc2cc(F)c(S(=O)(=O)Nc3nccs3)cc2Cl)cc1 [Example 305, 5-chloro-4-{4-[1-ethyl-3-(trifluoromethyl)-1H-pyrazol-5-yl]phenoxy}-2-fluoro-N-1,3-thiazol-2-ylbenzenesulfonamide]
>1 µM	Cn1cnnc1-c1cc(Cl)ccc1Oc1ccc(S(=O)(=O)Nc2nccs2)cc1F [Example 306, 4-[4-chloro-2-(4-methyl-4H-1,2,4-triazol-3-yl)phenoxy]-3-fluoro-N-1,3-thiazol-2-ylbenzenesulfonamide]
0.81 µM	Cn1ncc(F)c1-c1cc(Cl)ccc1Oc1ccc(S(=O)(=O)Nc2nccs2)cc1F [Example 307, 4-[4-Chloro-2-(4-fluoro-1-methyl-1H-pyrazol-5-yl)phenoxy]-3-fluoro-N-1,3-thiazol-2-ylbenzenesulfonamide]
0.98 µM	O=S(=O)(Nc1nccs1)c1ccc(Oc2ccc(Cl)cc2-c2ccn[nH]2)c(F)c1 [Example 308, 4-[4-Chloro-2-(1H-pyrazol-5-yl)phenoxy]-3-fluoro-N-1,3-thiazol-2-ylbenzenesulfonamide]
0.025 µM	Cn1nccc1-c1cc(C2CC2)ccc1Oc1ccc(S(=O)(=O)Nc2nccs2)cc1F [Example 309, 4-[4-Cyclopropyl-2-(1-methyl-1H-pyrazol-5-yl)phenoxy]-3-fluoro-N-1,3-thiazol-2-ylbenzenesulfonamide]
>1 µM	CC(C)Oc1cc(-c2cc(F)ccc2Oc2ccc(S(=O)(=O)Nc3nccs3)cc2C#N)n(C)n1 [Example 310, 3-cyano-4-[4-fluoro-2-(3-isopropoxy-1-methyl-1H-pyrazol-5-yl)phenoxy]-N-1,3-thiazol-2-ylbenzenesulfonamide]
4.9 µM	CCn1nc(C(F)(F)F)cc1-c1ccc(Oc2ccc(S(=O)(=O)Nc3ncc(F)cc3F)cc2C#N)cc1 [Example 311, 3-cyano-N-(3,5-difluoropyridin-2-yl)-4-{4-[1-ethyl-3-(trifluoromethyl)-1H-pyrazol-5-yl]phenoxy}benzenesulfonamide]
0.017 µM	Cn1nccc1-c1cc(I)ccc1Oc1ccc(S(=O)(=O)Nc2nccs2)cc1C#N [Example 312, 3-cyano-4-[4-iodo-2-(1-methyl-1H-pyrazol-5-yl)phenoxy]-N-1,3-thiazol-2-ylbenzenesulfonamide]
0.73 µM	N#Cc1cc(S(=O)(=O)Nc2ccc(F)cn2)ccc1Oc1ccc(Cl)cc1-c1cn[nH]c1 [Example 314, 4-[4-chloro-2-(1H-pyrazol-4-yl)phenoxy]-3-cyano-N-(5-fluoropyridin-2-yl)benzenesulfonamide]
1.2 µM	N#Cc1cc(S(=O)(=O)Nc2ccc(F)cn2)ccc1Oc1ccc(C(F)(F)F)cc1-c1cn[nH]c1 [Example 315, 3-cyano-N-(5-fluoropyridin-2-yl)-4-[2-(1H-pyrazol-4-yl)-4-(trifluoromethyl)phenoxy]benzenesulfonamide]
0.74 µM	CCn1cc(C(F)(F)F)nc1-c1ccc(Oc2ccc(S(=O)(=O)Nc3nccs3)cc2C#N)cc1 [Example 316, 3-cyano-4-{4-[1-ethyl-4-(trifluoromethyl)-1H-imidazol-2-yl]phenoxy}-N-1,3-thiazol-2-ylbenzenesulfonamide]
2.2 µM	Cc1coc(-c2ccc(Oc3ccc(S(=O)(=O)Nc4nccs4)cc3C#N)cc2)n1 [Example 317, 3-cyano-4-[4-(4-methyl-1,3-oxazol-2-yl)phenoxy]-N-1,3-thiazol-2-ylbenzenesulfonamide]
1.3 µM	Cc1coc(-c2cc(Cl)ccc2Oc2ccc(S(=O)(=O)Nc3nccs3)cc2C#N)n1 [Example 318, 4-[4-chloro-2-(4-methyl-1,3-oxazol-2-yl)phenoxy]-3-cyano-N-1,3-thiazol-2-ylbenzenesulfonamide]
